Data as given in the NIST ThermoML archive (doi:10.1021/je400581e).

Experiments:
[1] = refractive index (Na D-line) (dimensionless); conditions: 298.15 K; 101.33 kPa; Liquid; Standard Abbe refractometry
[2] = Liquid; for mass density: 298.15 K, 101.33 kPa, Vibrating tube method

CC(C)CCO [3-methylbutan-1-ol]
Conditions | mass density [kg/m3] | refractive index
[1] | – | 1.4035
[2] | 806.21 | –

[2]
Conditions | vapor or sublimation pressure [kPa]
395.68 K | 74.7
404.7 K | 101.3
404.71 K | 101.3

CC(C)CO [2-methyl-1-propanol]
Conditions | mass density [kg/m3] | refractive index
[1] | – | 1.3927
[2] | 795.35 | –

[2], Ebulliometric method (Recirculating still)
Conditions | vapor or sublimation pressure [kPa]
347.84 K | 26.2
351.07 K | 30.19
359.54 K | 43.66
362.99 K | 50.45
368.56 K | 63.25
372.09 K | 72.73
372.56 K | 74.66
375.06 K | 81.58
378.19 K | 91.8
380.73 K | 101.32
382.25 K | 106.5

CC(C)O [propan-2-ol]
Conditions | mass density [kg/m3] | refractive index
[1] | – | 1.374
[2] | 779.36 | –

[2], Ebulliometric method (Recirculating still)
Conditions | vapor or sublimation pressure [kPa]
325.2 K | 26.21
328 K | 30.2
335.73 K | 43.66
338.88 K | 50.43
343.99 K | 63.24
347.25 K | 72.74
347.86 K | 74.65
349.98 K | 81.59
352.84 K | 91.8
355.37 K | 101.3
356.56 K | 106.52
